One data set concerns MCF-7 cells. In words: Western blots of MCF-7 cell extracts. Type of data set: cell-based. Here is the method: MCF-7 cells treated with NBT and/or CQ for 24 h were harvested, washed twice with cold PBS, and then fractionated into cytosolic and mitochondrial fractions by using a Qproteome Mitochondria Isolation Kit (Qiagen, Germany) following the manufacturer’s protocol.
MCF-7 cells treated with NBT and/or CQ for 24 h were lysed in cell lysis buffer containing 1% PMFS for 30 min on ice and centrifuged at 12,000 r.p.m. for 5 min at 4 °C. Then, the protein was quantified by using a BCA Protein Assay Kit (BestBio, Shanghai, China).
Total cell extracts (50 μg) were separated by using SDS-PAGE at 120 V for 1.5 h at room temperature and then eletrotransferred onto PVDF membranes at 300 mA for 1 h at 4 °C. The membranes were washed three times with TBST each for 10 min, blocked with 5% nonfat dry milk in TBST for 2 h at room temperature, rinsed with TBST, incubated with primary antibodies overnight at 4 °C, washed three times with TBST, incubated with HRP-linked anti-IgG for 1 h at room temperature, and then washed three times as before. At the same time, β-actin, GAPDH, and tubulin acted as the control. Afterward, the chemiluminescent bands were analyzed using Image Lab™ Software on ChemiDoc XRS + (Bio-Rad, USA).
In general terms: In western blotting, separated proteins are transferred to a membrane and probed.

The test system of a further data set is MCF-7 xenograft. In words: In vivo antitumor efficacy on MCF-7 tumor-bearing nude mice (tumor volume, H&E, TUNEL). The arrangement: species or system female BALB/c nude mice. Particulars: for tumor growth compared with the control: i.p. daily for 11 days, NBT 100 mg/kg, BT 100 mg/kg, 5-FU 22 mg/kg. The text has this: Representative images are shown at ×400 magnification. Scale bar: 100 μm. Data represent mean ± SD of three independent experiments
Tumor samples were fixed in 10% formalin, paraffinized, and sectioned into 4-μm sections, which were stained with H&E according to standard methods.
Tumor samples were fixed in 10% formalin, paraffinized, and sectioned into 4-μm sections, which were stained with FITC-POD according to standard methods.

The conditions of data set [1]: for coefficient of the heart, liver, spleen, and kidney to the body weight: after 11 days of exposure; for body weight changes: during 11 days of exposure; for ALT/GPT / AST/GOT / BUN / CRE / UA: serum, after 11 days i.p., N = 8, mean ± S.
The subject of the next data set is HeLa. The data set is described as follows: CCK-8 cell proliferation assay, HeLa. In kind it is cell-based. Particulars: Homo sapiens, 48 h. Here is the method: (§1) Fig. 2 NBT and BT induced cell death in HeLa, A549, and MCF-7 cell lines. a Effects of BT on the proliferation of MCF-7, HeLa, and A549 cells. Cells (5 × 10^3) were seeded in a 96-well plate for 24 h and then treated with increased concentrations of BT for 48 h. The cell viability was evaluated by using CCK-8 assay. b MCF-7, HeLa, and A549 cells (5 × 10^3) were seeded in a 96-well plate for 24 h and were treated with known concentrations of NBT for 48 h. c MCF-7 cells (5 × 10^3) were seeded in a 96-well plate for 24 h and then were treated with known concentrations of NBT for 24 or 48 h. The cell viability was evaluated by using CCK-8 assay. d MCF10A, BEAS-2B, and L-02 cells (5 × 10^3) were seeded in a 96-well plate for 24 h and were treated with 6, 12, and 24 μM concentrations of NBT for 24 or 48 h. The cell viability was evaluated by using CCK-8 assay.
(§2) MCF-7, HeLa, A549, BEAS-2B, MCF10A, and L-02 cell lines were purchased from the American Type Culture Collection (ATCC) (Rockville, Maryland, USA). […]
(§3) Cells were grown in 96-well plates at a density of 5 × 10^3 cells/100 μL for 24 h, and then various concentrations of BT or NBT were added for 24 or 48 h. […] Optical density was measured at 450 nm by using a multimode plate reader (PerkinElmer EnSpire, USA).
(Tetrazolium assays rely on reduction of a dye to a coloured formazan, in cell work by metabolically active cells.)

A further data set concerns A549. In words: CCK-8 cell proliferation assay, A549. Type of data set: cell-based. Particulars: Homo sapiens, 48 h. On the procedure:
as §1, §2, §3

For the next data set, the system named is MCF-7. The data set is described as follows: CCK-8 cell proliferation assay, MCF-7. In kind it is cell-based. The following applies: Homo sapiens, MCF7, 48 h. Here is the method: as §1, §2, §3
Setting [2] is: MCF-7, 24 h, NBT 6-24 μM, Rapa 0.25 μM, NBT 12 μM + CQ 40 μM.

The record followed here is PMC5833777, “Lup-20(29)-en-3β,28-di-yl-nitrooxy acetate affects MCF-7 proliferation through the crosstalk between apoptosis and autophagy in mitochondria” (Cell Death & Disease, 2018).

Molecules are shown by their SMILES.

For orientation: IC50 means the midpoint of a concentration-inhibition curve. Broadly, the inhibition is how much of the control response was suppressed.

Turning to `Cn1cnc(N)c2ncnc1-2` [3-MA, 3-methyladenine, reference compound], the “effect on NBT-induced caspase-9 and PARP activation” value with MCF-7 cells (MCF-7, 3-MA 5 mM with NBT 12 μM, 24 h) is on record as “inhibit”.
In the case of `O=c1[nH]cc(F)c(=O)[nH]1` [5-FU, 5-fluorouracil], the “tumor growth compared with the control” value with MCF-7 xenograft is on record as “significant reduction in tumor growth”. In addition, in data set [1], the “coefficient of the heart, liver, spleen, and kidney to the body weight” value is listed as “no significant differences”; the body weight changes entry was “no significant differences”; the ALT/GPT turned out to be 95.48 ± 12.86 IU/L; the AST/GOT amounted to 245.71 ± 47.15 IU/L. Moreover, in data set [1], the BUN came out at 9.26 ± 2.23 mmol/L, the CRE was determined as 32.95 ± 6.29 µmol/L and the UA came out at 84.52 ± 6.63 µmol/L.
Take `C=C(C)[C@@H]1CC[C@]2(CO)CC[C@]3(C)[C@H](CC[C@@H]4[C@@]5(C)CC[C@H](O)C(C)(C)[C@@H]5CC[C@]43C)[C@@H]12` [BT, Betulin]: the IC50 with HeLa worked out at 288 ± 12.3 µM. This molecule also returned an inhibition at 500 µM with A549 of no more than 40%. In the data set with MCF-7, this molecule returned an inhibition at 500 µM of no more than 40%. Also, the “HE staining of tumors” value with MCF-7 xenograft (100 mg/kg i.p., 11 days) was “fibrosis, necrosis, and inflammatory cell infiltration”. In the data set on MCF-7 xenograft, the “tumor growth compared with the control” value was “minimal reduction in tumor growth”. Further, in data set [1] (100 mg/kg i.p., nude mice), the “safety after 11 days of administration” value was “safe”. In data set [1], the “coefficient of the heart, liver, spleen, and kidney to the body weight” value is reported as “no significant differences”; the body weight changes entry is “no significant differences”; the ALT/GPT was found to be 106.33 ± 24.27 IU/L; the AST/GOT is 183.42 ± 39.98 IU/L. In data set [1], this molecule displayed a BUN of 10.13 ± 3.04 mmol/L, a CRE of 45.10 ± 6.43 µmol/L and a UA of 130.18 ± 25.22 µmol/L.
As to `CCN(CC)CCCC(C)Nc1ccnc2cc(Cl)ccc12` (stereo not drawn) [CQ, Chloroquine, reference compound], the “p62 level increased by” value in the data set on MCF-7 cells (MCF-7, 40 μM, 24 h) is listed as 75%.
Take `CO[C@H]1C[C@@H]2CC[C@@H](C)[C@@](O)(O2)C(=O)C(=O)N2CCCC[C@H]2C(=O)O[C@H]([C@H](C)C[C@@H]2CC[C@@H](O)[C@H](OC)C2)CC(=O)[C@H](C)/C=C(\C)[C@@H](O)[C@@H](OC)C(=O)[C@H](C)C[C@H](C)/C=C/C=C/C=C/1C` [Rapa, Rapamycin, reference compound]: the “p62 level reduced by” value in the data set with MCF-7 cells (MCF-7, 0.25 μM alone, 24 h) is 60%. In the data set with MCF-7 cells (setting [2]), the Atg5 level result was “increased” and the p62 level entry is listed as “decreased”. The LC3B-II level entry in the data set on MCF-7 cells (MCF-7, 24 h, Rapa 0.25 μM, NBT 12 μM + CQ 40 μM) was “increased”.
